Reference: ChEMBL document CHEMBL5465560, “Selectivity Literature for EUbOPEN Chemogenomic Library” (2024)

What was measured:
[1] = system: Tyrosine-protein kinase ABL1 (Homo sapiens), P00519 [F317I]; settings: at 10 µM
[2] = biological target: Ribosomal protein S6 kinase alpha-3 (Homo sapiens, UniProt P51812); assay: Selectivity interaction (Kinase screening (Nanosyn)) EUB0000604a RPS6KA3
[3] = biological target: Interferon-induced, double-stranded RNA-activated protein kinase (Homo sapiens) (UniProt P19525); assay: Selectivity interaction (KinomeScan (DiscoverX)) EUB0001049a EIF2AK2; settings: at 1 µM
Interferon-induced, double-stranded RNA-activated protein kinase (Homo sapiens), sequence (P19525 whole entry): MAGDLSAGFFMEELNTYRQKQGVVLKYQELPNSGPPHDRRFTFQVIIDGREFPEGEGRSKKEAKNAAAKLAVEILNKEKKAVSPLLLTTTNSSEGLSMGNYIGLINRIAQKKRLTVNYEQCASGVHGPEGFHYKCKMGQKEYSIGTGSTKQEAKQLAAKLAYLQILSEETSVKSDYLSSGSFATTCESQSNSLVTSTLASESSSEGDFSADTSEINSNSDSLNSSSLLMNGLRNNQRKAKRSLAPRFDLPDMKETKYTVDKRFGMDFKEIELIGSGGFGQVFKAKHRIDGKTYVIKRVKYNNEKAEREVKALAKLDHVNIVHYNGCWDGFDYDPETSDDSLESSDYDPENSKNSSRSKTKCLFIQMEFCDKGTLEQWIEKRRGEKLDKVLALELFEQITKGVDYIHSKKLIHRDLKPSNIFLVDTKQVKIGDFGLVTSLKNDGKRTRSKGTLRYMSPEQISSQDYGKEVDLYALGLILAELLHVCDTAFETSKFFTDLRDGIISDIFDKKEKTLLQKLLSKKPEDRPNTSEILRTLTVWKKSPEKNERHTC

[4] = system: Hepatocyte growth factor receptor (Homo sapiens), P08581 [Y1235D]; assay: (§1) Selectivity interaction (Ambit KINOMEscan and KiNATiv profiling in Jurkat cells) EUB0000090b MET; assay type: cell-based; settings: at 1 µM
[5] = biological target: Hepatocyte growth factor receptor (Homo sapiens, UniProt P08581); assay: as §1; assay type: cell-based; settings: at 1 µM
[6] = system: Hepatocyte growth factor receptor (Homo sapiens), P08581 [M1250T]; assay: as §1; assay type: cell-based; settings: at 1 µM
[7] = biological target: Serine/threonine-protein kinase tousled-like 2 (Homo sapiens) (UniProt Q86UE8); settings: at 10 µM
Serine/threonine-protein kinase tousled-like 2 (Homo sapiens), sequence (Q86UE8 whole entry, looked up, canonical isoform): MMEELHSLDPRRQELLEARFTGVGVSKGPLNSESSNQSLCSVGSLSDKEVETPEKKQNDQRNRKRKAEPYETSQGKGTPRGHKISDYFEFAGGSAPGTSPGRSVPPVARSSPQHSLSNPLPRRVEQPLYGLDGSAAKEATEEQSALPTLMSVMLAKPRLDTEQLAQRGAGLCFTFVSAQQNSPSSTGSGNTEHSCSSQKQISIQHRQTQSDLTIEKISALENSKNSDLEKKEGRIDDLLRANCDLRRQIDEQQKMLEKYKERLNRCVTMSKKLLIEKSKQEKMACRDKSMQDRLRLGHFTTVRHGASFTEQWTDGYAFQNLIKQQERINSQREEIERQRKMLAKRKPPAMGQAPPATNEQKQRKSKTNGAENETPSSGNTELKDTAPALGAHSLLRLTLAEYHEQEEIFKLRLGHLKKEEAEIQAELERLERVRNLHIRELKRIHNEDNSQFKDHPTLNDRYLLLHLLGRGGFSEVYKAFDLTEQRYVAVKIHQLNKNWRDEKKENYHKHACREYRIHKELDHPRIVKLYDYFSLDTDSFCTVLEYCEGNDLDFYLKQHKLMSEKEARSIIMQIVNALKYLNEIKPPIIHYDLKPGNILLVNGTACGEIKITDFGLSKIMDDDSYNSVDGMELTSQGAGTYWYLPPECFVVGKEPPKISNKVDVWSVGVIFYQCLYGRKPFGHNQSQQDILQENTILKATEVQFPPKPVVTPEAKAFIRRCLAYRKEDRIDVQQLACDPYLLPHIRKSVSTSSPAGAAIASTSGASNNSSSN

[8] = biological target: Casein kinase I isoform delta (Homo sapiens, UniProt P48730); settings: at 10 µM
Casein kinase I isoform delta, sequence (P48730 whole entry, looked up, canonical isoform): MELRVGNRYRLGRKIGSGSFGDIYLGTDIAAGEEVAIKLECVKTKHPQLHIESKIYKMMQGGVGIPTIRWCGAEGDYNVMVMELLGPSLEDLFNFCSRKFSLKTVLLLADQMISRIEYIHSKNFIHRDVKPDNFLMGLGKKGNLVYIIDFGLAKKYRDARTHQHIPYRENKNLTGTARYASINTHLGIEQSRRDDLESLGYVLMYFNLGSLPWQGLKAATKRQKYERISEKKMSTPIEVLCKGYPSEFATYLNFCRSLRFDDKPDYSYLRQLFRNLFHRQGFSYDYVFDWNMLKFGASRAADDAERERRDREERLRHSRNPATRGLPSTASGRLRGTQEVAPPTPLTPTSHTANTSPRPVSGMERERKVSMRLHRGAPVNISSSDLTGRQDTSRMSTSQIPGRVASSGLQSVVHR

[9] = biological target: T1, Serine/threonine-protein kinase DCLK3 (Homo sapiens) (UniProt Q9C098); assay: Selectivity interaction (KinomeScan (DiscoverX)) EUB0000595a DCLK3; settings: at 10 µM
T1 sequence (whole entry): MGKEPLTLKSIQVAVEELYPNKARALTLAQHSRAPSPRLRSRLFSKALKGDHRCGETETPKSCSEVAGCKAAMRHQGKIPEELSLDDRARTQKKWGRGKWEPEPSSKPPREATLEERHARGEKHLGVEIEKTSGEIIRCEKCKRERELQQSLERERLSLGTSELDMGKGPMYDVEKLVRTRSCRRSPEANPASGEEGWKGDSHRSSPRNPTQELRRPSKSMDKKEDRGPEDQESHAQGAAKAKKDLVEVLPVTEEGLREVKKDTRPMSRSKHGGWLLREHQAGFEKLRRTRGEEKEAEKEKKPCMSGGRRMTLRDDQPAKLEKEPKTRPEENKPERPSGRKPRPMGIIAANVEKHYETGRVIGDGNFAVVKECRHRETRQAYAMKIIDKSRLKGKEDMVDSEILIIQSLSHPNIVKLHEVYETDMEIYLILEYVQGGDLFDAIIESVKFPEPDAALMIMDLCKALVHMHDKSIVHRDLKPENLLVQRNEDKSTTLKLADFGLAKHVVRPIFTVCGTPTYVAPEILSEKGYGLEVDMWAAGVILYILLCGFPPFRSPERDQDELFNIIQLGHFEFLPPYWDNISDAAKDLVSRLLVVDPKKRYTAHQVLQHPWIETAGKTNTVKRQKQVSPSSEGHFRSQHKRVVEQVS

[10] = biological target: Serine/threonine-protein kinase MRCK alpha (Homo sapiens) (UniProt Q5VT25); assay: Selectivity interaction (KinomeScan (DiscoverX)) EUB0001079a CDC42BPA; settings: at 1 µM
Serine/threonine-protein kinase MRCK alpha (Homo sapiens), sequence (Q5VT25 whole entry): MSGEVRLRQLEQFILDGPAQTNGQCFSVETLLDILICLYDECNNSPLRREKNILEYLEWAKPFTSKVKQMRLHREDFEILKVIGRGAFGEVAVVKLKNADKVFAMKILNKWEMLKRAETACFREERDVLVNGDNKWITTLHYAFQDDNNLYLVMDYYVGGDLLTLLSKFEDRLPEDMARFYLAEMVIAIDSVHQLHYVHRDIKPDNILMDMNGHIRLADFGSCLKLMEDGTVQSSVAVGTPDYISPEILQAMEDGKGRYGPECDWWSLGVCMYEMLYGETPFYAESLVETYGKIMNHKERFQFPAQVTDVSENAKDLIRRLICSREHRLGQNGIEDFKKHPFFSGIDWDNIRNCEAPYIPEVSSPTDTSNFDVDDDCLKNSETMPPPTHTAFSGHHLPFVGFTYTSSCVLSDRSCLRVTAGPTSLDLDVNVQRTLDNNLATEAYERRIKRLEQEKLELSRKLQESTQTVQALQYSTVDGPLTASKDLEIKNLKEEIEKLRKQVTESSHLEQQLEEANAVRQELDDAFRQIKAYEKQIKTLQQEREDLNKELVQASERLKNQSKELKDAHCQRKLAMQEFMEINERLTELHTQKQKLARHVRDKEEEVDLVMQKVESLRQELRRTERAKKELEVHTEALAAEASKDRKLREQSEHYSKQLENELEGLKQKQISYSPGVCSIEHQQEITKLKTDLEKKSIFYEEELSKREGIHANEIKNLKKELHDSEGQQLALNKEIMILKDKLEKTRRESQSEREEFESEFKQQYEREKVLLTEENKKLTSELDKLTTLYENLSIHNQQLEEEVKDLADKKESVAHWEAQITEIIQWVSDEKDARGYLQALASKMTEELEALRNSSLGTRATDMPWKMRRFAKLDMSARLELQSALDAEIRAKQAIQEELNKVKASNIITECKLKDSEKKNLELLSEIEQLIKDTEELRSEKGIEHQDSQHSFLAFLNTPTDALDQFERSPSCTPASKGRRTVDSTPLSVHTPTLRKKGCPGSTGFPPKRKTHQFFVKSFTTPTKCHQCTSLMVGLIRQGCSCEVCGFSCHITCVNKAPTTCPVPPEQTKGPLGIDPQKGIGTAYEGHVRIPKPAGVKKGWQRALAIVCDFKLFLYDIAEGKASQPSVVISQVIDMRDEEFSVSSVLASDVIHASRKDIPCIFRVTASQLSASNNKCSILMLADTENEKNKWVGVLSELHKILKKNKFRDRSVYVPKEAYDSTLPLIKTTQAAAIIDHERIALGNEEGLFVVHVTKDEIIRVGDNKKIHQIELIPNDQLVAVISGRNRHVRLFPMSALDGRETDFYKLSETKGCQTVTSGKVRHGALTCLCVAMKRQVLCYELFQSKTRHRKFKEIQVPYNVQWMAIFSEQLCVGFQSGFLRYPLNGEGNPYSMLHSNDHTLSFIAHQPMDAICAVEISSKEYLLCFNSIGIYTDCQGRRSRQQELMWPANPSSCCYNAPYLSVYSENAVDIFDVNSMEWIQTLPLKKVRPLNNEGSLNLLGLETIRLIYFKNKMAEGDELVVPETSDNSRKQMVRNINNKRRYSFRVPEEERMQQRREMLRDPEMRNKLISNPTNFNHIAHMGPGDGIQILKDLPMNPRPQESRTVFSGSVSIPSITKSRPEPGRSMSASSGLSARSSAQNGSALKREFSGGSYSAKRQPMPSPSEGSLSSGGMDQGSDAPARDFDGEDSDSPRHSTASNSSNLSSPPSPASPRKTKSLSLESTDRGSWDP

[11] = biological target: T1, Serine/threonine-protein kinase DCLK3 (Homo sapiens); assay: Selectivity interaction (KinomeScan (DiscoverX)) EUB0001079a DCLK3; settings: at 1 µM
[12] = biological target: Serine/threonine-protein kinase PAK 6 (Homo sapiens) (UniProt Q9NQU5); assay: Selectivity interaction (KinomeScan (DiscoverX)) EUB0000045b PAK6
Serine/threonine-protein kinase PAK 6 (Homo sapiens), sequence (Q9NQU5 whole entry, looked up): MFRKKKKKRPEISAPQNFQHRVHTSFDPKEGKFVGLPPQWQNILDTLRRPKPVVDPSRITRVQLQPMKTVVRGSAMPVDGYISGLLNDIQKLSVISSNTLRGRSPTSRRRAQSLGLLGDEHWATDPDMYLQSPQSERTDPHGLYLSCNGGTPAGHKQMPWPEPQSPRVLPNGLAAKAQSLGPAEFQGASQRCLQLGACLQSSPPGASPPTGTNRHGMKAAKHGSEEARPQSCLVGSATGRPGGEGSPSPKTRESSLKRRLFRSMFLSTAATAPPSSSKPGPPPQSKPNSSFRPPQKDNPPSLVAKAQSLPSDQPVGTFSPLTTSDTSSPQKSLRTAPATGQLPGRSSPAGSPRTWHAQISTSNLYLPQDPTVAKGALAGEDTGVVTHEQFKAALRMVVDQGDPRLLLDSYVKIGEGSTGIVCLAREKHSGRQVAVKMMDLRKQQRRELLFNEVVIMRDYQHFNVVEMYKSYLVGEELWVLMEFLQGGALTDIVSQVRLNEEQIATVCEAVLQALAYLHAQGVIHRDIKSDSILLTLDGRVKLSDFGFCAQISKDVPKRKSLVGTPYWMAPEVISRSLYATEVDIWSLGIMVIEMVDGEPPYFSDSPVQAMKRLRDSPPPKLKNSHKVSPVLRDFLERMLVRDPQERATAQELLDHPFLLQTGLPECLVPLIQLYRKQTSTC

[13] = biological target: Serine/threonine-protein kinase pim-3 (Homo sapiens) (UniProt Q86V86); assay: Selectivity interaction (KinomeScan (DiscoverX)) EUB0000655a PIM3; settings: at 10 µM
[14] = biological target: T2, Tyrosine-protein kinase Tec (Homo sapiens) (UniProt P42680); assay: Selectivity interaction (KinomeScan (DiscoverX)) EUB0001619a TEC; settings: at 1 µM
T2 sequence (whole entry): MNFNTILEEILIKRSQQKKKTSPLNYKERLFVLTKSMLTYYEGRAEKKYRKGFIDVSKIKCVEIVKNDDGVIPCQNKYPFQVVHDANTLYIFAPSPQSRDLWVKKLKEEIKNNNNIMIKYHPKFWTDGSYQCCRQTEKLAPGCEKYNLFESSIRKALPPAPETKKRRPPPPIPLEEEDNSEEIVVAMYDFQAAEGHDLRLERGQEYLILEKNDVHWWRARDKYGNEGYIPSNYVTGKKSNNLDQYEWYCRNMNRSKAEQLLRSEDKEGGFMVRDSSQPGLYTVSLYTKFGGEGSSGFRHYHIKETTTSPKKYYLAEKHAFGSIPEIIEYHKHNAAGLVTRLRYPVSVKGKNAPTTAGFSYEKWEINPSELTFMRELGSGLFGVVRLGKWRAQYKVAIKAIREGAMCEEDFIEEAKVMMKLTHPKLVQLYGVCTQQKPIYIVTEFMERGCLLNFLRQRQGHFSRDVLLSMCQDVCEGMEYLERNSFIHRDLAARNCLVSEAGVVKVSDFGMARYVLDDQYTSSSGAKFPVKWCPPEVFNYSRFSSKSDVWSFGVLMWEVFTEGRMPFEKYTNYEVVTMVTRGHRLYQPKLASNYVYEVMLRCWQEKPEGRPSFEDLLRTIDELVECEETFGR

[15] = biological target: TGF-beta receptor type-2 (Homo sapiens) (UniProt P37173); assay: Selectivity interaction (KinomeScan (DiscoverX)) EUB0001619a TGFBR2; settings: at 1 µM
[16] = biological target: T3, Serine/threonine-protein kinase 3 (Homo sapiens) (UniProt Q13188); assay: Selectivity interaction (ActivX KiNativ screen (ex vivo kinase selectivity in human PBMCs)) EUB0001619a STK3; assay type: cell-based; settings: PBMC, at 1 µM
T3 sequence (whole entry): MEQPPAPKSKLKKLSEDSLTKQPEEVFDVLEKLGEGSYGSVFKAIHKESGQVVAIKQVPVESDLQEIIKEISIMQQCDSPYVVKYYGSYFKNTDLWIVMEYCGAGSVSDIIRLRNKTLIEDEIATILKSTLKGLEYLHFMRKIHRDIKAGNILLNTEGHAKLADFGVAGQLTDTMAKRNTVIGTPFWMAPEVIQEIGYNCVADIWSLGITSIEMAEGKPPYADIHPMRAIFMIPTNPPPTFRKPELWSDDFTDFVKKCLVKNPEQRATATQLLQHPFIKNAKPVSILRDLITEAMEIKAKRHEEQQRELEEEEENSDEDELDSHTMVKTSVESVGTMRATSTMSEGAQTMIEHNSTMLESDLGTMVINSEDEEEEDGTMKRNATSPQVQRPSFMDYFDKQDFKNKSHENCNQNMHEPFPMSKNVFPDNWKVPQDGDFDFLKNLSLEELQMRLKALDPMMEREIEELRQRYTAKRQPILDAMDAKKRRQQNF

[17] = biological target: Casein kinase I isoform alpha (Homo sapiens, UniProt P48729); assay: Selectivity interaction (Kinase panel (KiNativ target engagement assay in Jurkat cells)) EUB0001635a CSNK1A1; assay type: cell-based; settings: Selectivity number of off-targets 0.0, Selectivity number of targets 233.0, Source Knowledge https://www.sciencedirect.com/science/article/pii/S2451945619300674?via%3Dihub, at 1 µM
[18] = biological target: Cyclin-dependent kinase 18 (Homo sapiens) (UniProt Q07002); assay: Selectivity interaction (KinomeScan (DiscoverX)) EUB0000666a CDK18; settings: at 10 µM
Cyclin-dependent kinase 18 (Homo sapiens), sequence (Q07002 whole entry): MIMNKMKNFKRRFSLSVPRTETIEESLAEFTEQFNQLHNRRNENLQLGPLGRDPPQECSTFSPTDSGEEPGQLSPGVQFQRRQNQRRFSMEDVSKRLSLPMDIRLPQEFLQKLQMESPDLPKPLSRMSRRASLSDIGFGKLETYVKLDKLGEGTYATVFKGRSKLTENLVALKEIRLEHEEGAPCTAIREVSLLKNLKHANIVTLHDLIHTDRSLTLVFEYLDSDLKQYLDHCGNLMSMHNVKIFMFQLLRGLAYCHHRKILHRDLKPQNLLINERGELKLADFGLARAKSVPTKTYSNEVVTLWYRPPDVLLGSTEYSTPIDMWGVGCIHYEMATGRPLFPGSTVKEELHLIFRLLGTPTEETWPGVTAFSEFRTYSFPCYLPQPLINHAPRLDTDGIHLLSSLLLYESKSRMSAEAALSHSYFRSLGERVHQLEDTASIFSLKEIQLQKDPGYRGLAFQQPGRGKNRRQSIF

Structure (SMILES): Cc1cc([C@@H](C)Nc2ccccc2C(=O)O)c2nc(N3CCOCC3)cc(=O)n2c1 [AZD-6482]
- % of control [1]: 94%

Structure (SMILES): Cc1cnc(Nc2ccc(F)cc2Cl)nc1-c1c[nH]c(C(=O)N[C@H](CO)c2cccc(Cl)c2)c1
- % of inhibition [2]: 6%

Structure (SMILES): COc1cc(Nc2nc(C)cc(-c3cnn4nc(OC)ccc34)n2)cc(C(F)(F)F)c1
- % of control [3]: 100%

Structure (SMILES): CN(C)C/C=C/C(=O)Nc1ccc(C(=O)N2CCCC(Nc3ncc(Cl)c(-c4c[nH]c5ccccc45)n3)C2)cc1 (centres undefined)
- % of control [4]: 69%
- % of control [5]: 84%
- % of control [6]: 69%

Structure (SMILES): CCN(CC)CCCCNc1ncc2cc(-c3cc(OC)cc(OC)c3)c(NC(=O)NC(C)(C)C)nc2n1
- % of control [7]: 100%
- % of control [8]: 100%

Structure (SMILES): COCC(=O)NC/C=C/c1ccc2ncnc(Nc3ccc(Oc4ccc(C)nc4)c(C)c3)c2c1 [CP-724714]
- % of control [9]: 83%

Structure (SMILES): Nc1cnc(N2CCc3cc(S(=O)(=O)Nc4c(F)cc(Cl)cc4F)cc(N4CCCC4=O)c32)nc1 [TP-020n]
- % of control [10]: 100%
- % of control [11]: 85%

Structure (SMILES): C=CC(=O)Nc1cc(-n2c(=O)ccc3cnc4ccc(-c5ccc(NS(C)(=O)=O)cc5)cc4c32)ccc1C
- % of control ([12]; at 1 µM): 100%
- % of control ([12]; at 10 µM): 73%

Structure (SMILES): CN(C)CCOc1ccc(-c2nc(-c3ccncc3)c(-c3ccc4c(c3)CC/C4=N\O)[nH]2)cc1
- % of control [13]: 88%

Structure (SMILES): N#Cc1cccc(-c2c[nH]c3ncnc(N4CCOCC4)c23)c1
- % of control [14]: 100%
- % of control [15]: 100%
- % of inhibition [16]: 74%

Structure (SMILES): C=CC(=O)Nc1ccc(C(=O)Nc2[nH]nc3c2CN(C(=O)N[C@H](CN(C)C)c2ccccc2)C3(C)C)cc1
- % of engagement [17]: -2%

Structure (SMILES): O=C(NOC[C@H](O)CO)c1ccc(F)c(F)c1Nc1ccc(I)cc1F
- % of control [18]: 100%
